Laboratory results published in ChEMBL document CHEMBL4257449, “New N-(2-phenyl-4-oxo-1,3-thiazolidin-3-yl)-1,2-benzothiazole-3-carboxamides and acetamides as antimicrobial agents” (2017).
In brackets after ≈: the same amount, converted by molar mass.

Tests used:
Escherichia coli [1] = test: Antibacterial activity against Escherichia coli ATCC 35210 after 24 hrs by microdilution method; type: functional; settings: ATCC 35210, 24 h
Micrococcus flavus [2] = test: Bactericidal activity against Micrococcus flavus ATCC 10240 incubated for 24 hrs followed by serial sub-cultivation and measured after 24 hrs by microdilution method; type: functional
Enterobacter cloacae [3] = test: Antibacterial activity against Enterobacter cloacae after 24 hrs by microdilution method; type: functional
Salmonella typhimurium [4] = test: Bactericidal activity against Salmonella typhimurium ATCC 13311 incubated for 24 hrs followed by serial sub-cultivation and measured after 24 hrs by microdilution method; type: functional, Salmonella enterica subsp. enterica serovar Typhimurium
Bacillus cereus [5] = test: Bactericidal activity against Bacillus cereus incubated for 24 hrs followed by serial sub-cultivation and measured after 24 hrs by microdilution method; type: functional
Escherichia coli [6] = test: Bactericidal activity against Escherichia coli ATCC 35210 incubated for 24 hrs followed by serial sub-cultivation and measured after 24 hrs by microdilution method; type: functional
Aspergillus ochraceus [7] = test: Fungicidal activity against Aspergillus ochraceus ATCC 12066 incubated for 72 hrs followed by serial sub-cultivation for 72 hrs and measured after 72 hrs by serial dilution method; type: functional
Staphylococcus aureus [8] = test: Bactericidal activity against Staphylococcus aureus ATCC 6538 incubated for 24 hrs followed by serial sub-cultivation and measured after 24 hrs by microdilution method; type: functional
Penicillium ochrochloron [9] = test: Antifungal activity against Penicillium ochrochloron ATCC 9112 after 72 hrs by serial dilution method; type: functional; settings: ATCC 9112, 72 h
Pseudomonas aeruginosa [10] = test: Antibacterial activity against Pseudomonas aeruginosa ATCC 27853 after 24 hrs by microdilution method; type: functional; settings: ATCC 27853, 24 h
Aspergillus fumigatus [11] = test: Antifungal activity against Aspergillus fumigatus after 72 hrs by serial dilution method; type: functional
Aspergillus ochraceus [12] = test: Antifungal activity against Aspergillus ochraceus ATCC 12066 after 72 hrs by serial dilution method; type: functional; settings: ATCC 12066, 72 h
Trichoderma viride [13] = test: Antifungal activity against Trichoderma viride IAM 5061 after 72 hrs by serial dilution method; type: functional; settings: IAM 5061, 72 h
Candida albicans [14] = test: Fungicidal activity against Candida albicans incubated for 72 hrs followed by serial sub-cultivation for 72 hrs and measured after 72 hrs by serial dilution method; type: functional
Aspergillus fumigatus [15] = test: Fungicidal activity against Aspergillus fumigatus incubated for 72 hrs followed by serial sub-cultivation for 72 hrs and measured after 72 hrs by serial dilution method; type: functional
Listeria monocytogenes [16] = test: Antibacterial activity against Listeria monocytogenes NCTC 7973 after 24 hrs by microdilution method; type: functional; settings: NCTC 7973, 24 h
Talaromyces funiculosus [17] = test: Antifungal activity against Penicillium funiculosum ATCC 36839 after 72 hrs by serial dilution method; type: functional; settings: ATCC 36839, 72 h
Aspergillus versicolor [18] = test: Fungicidal activity against Aspergillus versicolor ATCC 11730 incubated for 72 hrs followed by serial sub-cultivation for 72 hrs and measured after 72 hrs by serial dilution method; type: functional
Aspergillus niger [19] = test: Antifungal activity against Aspergillus niger ATCC 6275 after 72 hrs by serial dilution method; type: functional; settings: ATCC 6275, 72 h
Talaromyces funiculosus [20] = test: Fungicidal activity against Penicillium funiculosum ATCC 36839 incubated for 72 hrs followed by serial sub-cultivation for 72 hrs and measured after 72 hrs by serial dilution method; type: functional
Pseudomonas aeruginosa [21] = test: Bactericidal activity against Pseudomonas aeruginosa ATCC 27853 incubated for 24 hrs followed by serial sub-cultivation and measured after 24 hrs by microdilution method; type: functional
Bacillus cereus [22] = test: Antibacterial activity against Bacillus cereus after 24 hrs by microdilution method; type: functional
Listeria monocytogenes [23] = test: Bactericidal activity against Listeria monocytogenes NCTC 7973 incubated for 24 hrs followed by serial sub-cultivation and measured after 24 hrs by microdilution method; type: functional
Candida albicans [24] = test: Antifungal activity against Candida albicans after 72 hrs by serial dilution method; type: functional
Aspergillus niger [25] = test: Fungicidal activity against Aspergillus niger ATCC 6275 incubated for 72 hrs followed by serial sub-cultivation for 72 hrs and measured after 72 hrs by serial dilution method; type: functional
Trichoderma viride [26] = test: Fungicidal activity against Trichoderma viride IAM 5061 incubated for 72 hrs followed by serial sub-cultivation for 72 hrs and measured after 72 hrs by serial dilution method; type: functional
Micrococcus flavus [27] = test: Antibacterial activity against Micrococcus flavus ATCC 10240 after 24 hrs by microdilution method; type: functional; settings: ATCC 10240, 24 h
Enterobacter cloacae [28] = test: Bactericidal activity against Enterobacter cloacae incubated for 24 hrs followed by serial sub-cultivation and measured after 24 hrs by microdilution method; type: functional
Salmonella typhimurium [29] = test: Antibacterial activity against Salmonella typhimurium ATCC 13311 after 24 hrs by microdilution method; type: functional, Salmonella enterica subsp. enterica serovar Typhimurium; settings: Salmonella enterica, ATCC 13311, 24 h
Penicillium ochrochloron [30] = test: Fungicidal activity against Penicillium ochrochloron ATCC 9112 incubated for 72 hrs followed by serial sub-cultivation for 72 hrs and measured after 72 hrs by serial dilution method; type: functional
Staphylococcus aureus [31] = test: Antibacterial activity against Staphylococcus aureus ATCC 6538 after 24 hrs by microdilution method; type: functional; settings: ATCC 6538, 24 h
Aspergillus versicolor [32] = test: Antifungal activity against Aspergillus versicolor ATCC 11730 after 72 hrs by serial dilution method; type: functional; settings: ATCC 11730, 72 h

Row | MIC (Escherichia coli [1]) | MIC (Enterobacter cloacae [3]) | MIC (Penicillium ochrochloron [9]) | MIC (Pseudomonas aeruginosa [10]) | MIC (Aspergillus fumigatus [11]) | MIC (Aspergillus ochraceus [12]) | MIC (Trichoderma viride [13]) | MIC (Listeria monocytogenes [16]) | MIC (Talaromyces funiculosus [17]) | MIC (Aspergillus niger [19]) | SMILES | MBC99.5 (Micrococcus flavus [2]) | MBC99.5 (Salmonella typhimurium [4]) | MBC99.5 (Bacillus cereus [5]) | MBC99.5 (Escherichia coli [6]) | MFC99.5 (Aspergillus ochraceus [7]) | MBC99.5 (Staphylococcus aureus [8]) | MFC99.5 (Candida albicans [14]) | MFC99.5 (Aspergillus fumigatus [15]) | MFC99.5 (Aspergillus versicolor [18]) | MFC99.5 (Talaromyces funiculosus [20]) | also measured
1 | 160 µM (≈ 59.7 µg/mL) | 214 µM (≈ 79.9 µg/mL) | 107 µM (≈ 40 µg/mL) | 214 µM (≈ 79.9 µg/mL) | 54 µM (≈ 20.2 µg/mL) | 292 µM (≈ 109 µg/mL) | 54 µM (≈ 20.2 µg/mL) | 214 µM (≈ 79.9 µg/mL) | 107 µM (≈ 40 µg/mL) | 107 µM (≈ 40 µg/mL) | O=C(NN1C(=O)CSC1c1cccc(F)c1)c1nsc2ccccc12 (stereo not drawn) | 40.2 ×10⁻² umol/ml | 40.2 ×10⁻² umol/ml | 40.2 ×10⁻² umol/ml | 21.4 ×10⁻² umol/ml | 40.2 ×10⁻² umol/ml | 21.4 ×10⁻² umol/ml | 21.4 ×10⁻² umol/ml | 10.7 ×10⁻² umol/ml | 10.7 ×10⁻² umol/ml | 21.4 ×10⁻² umol/ml | MBC99.5 (Pseudomonas aeruginosa [21]): 80.4 ×10⁻² umol/ml; MIC (Bacillus cereus [22]): 107 µM (≈ 40 µg/mL); MBC99.5 (Listeria monocytogenes [23]): 40.2 ×10⁻² umol/ml; MIC (Candida albicans [24]): 107 µM (≈ 40 µg/mL); MFC99.5 (Aspergillus niger [25]): 21.4 ×10⁻² umol/ml; MFC99.5 (Trichoderma viride [26]): 10.7 ×10⁻² umol/ml; MIC (Micrococcus flavus [27]): 214 µM (≈ 79.9 µg/mL); MBC99.5 (Enterobacter cloacae [28]): 21.4 ×10⁻² umol/ml; MIC (Salmonella typhimurium [29]): 214 µM (≈ 79.9 µg/mL); MFC99.5 (Penicillium ochrochloron [30]): 21.4 ×10⁻² umol/ml; MIC (Staphylococcus aureus [31]): 107 µM (≈ 40 µg/mL); MIC (Aspergillus versicolor [32]): 54 µM (≈ 20.2 µg/mL)
2 | 112 µM (≈ 39.8 µg/mL) | 112 µM (≈ 39.8 µg/mL) | 112 µM (≈ 39.8 µg/mL) | 225 µM (≈ 80 µg/mL) | 112 µM (≈ 39.8 µg/mL) | 28 µM (≈ 9.95 µg/mL) | 56 µM (≈ 19.9 µg/mL) | 225 µM (≈ 80 µg/mL) | 225 µM (≈ 80 µg/mL) | 112 µM (≈ 39.8 µg/mL) | O=C(NN1C(=O)CSC1c1ccccc1)c1nsc2ccccc12 (stereo not drawn) | 42.2 ×10⁻² umol/ml | 42.2 ×10⁻² umol/ml | 42.2 ×10⁻² umol/ml | 22.5 ×10⁻² umol/ml | 5.6 ×10⁻² umol/ml | 42.2 ×10⁻² umol/ml | 42.2 ×10⁻² umol/ml | 22.5 ×10⁻² umol/ml | 42.2 ×10⁻² umol/ml | 42.2 ×10⁻² umol/ml | MBC99.5 (Pseudomonas aeruginosa [21]): 42.2 ×10⁻² umol/ml; MIC (Bacillus cereus [22]): 225 µM (≈ 80 µg/mL); MBC99.5 (Listeria monocytogenes [23]): 42.2 ×10⁻² umol/ml; MIC (Candida albicans [24]): 253 µM (≈ 89.9 µg/mL); MFC99.5 (Aspergillus niger [25]): 22.5 ×10⁻² umol/ml; MFC99.5 (Trichoderma viride [26]): 11.2 ×10⁻² umol/ml; MIC (Micrococcus flavus [27]): 225 µM (≈ 80 µg/mL); MBC99.5 (Enterobacter cloacae [28]): 22.5 ×10⁻² umol/ml; MIC (Salmonella typhimurium [29]): 225 µM (≈ 80 µg/mL); MFC99.5 (Penicillium ochrochloron [30]): 22.5 ×10⁻² umol/ml; MIC (Staphylococcus aureus [31]): 225 µM (≈ 80 µg/mL); MIC (Aspergillus versicolor [32]): 225 µM (≈ 80 µg/mL)
3 | 216 µM (≈ 79.8 µg/mL) | 108 µM (≈ 39.9 µg/mL) | 162 µM (≈ 59.9 µg/mL) | 216 µM (≈ 79.8 µg/mL) | 108 µM (≈ 39.9 µg/mL) | 54 µM (≈ 20 µg/mL) | 54 µM (≈ 20 µg/mL) | 216 µM (≈ 79.8 µg/mL) | 216 µM (≈ 79.8 µg/mL) | 162 µM (≈ 59.9 µg/mL) | O=C(Cc1nsc2ccccc12)NN1C(=O)CSC1c1ccccc1 (stereo not drawn) | 40.5 ×10⁻² umol/ml | 40.5 ×10⁻² umol/ml | 40.5 ×10⁻² umol/ml | 40.5 ×10⁻² umol/ml | 10.8 ×10⁻² umol/ml | 40.5 ×10⁻² umol/ml | 40.5 ×10⁻² umol/ml | 40.5 ×10⁻² umol/ml | 40.5 ×10⁻² umol/ml | 21.6 ×10⁻² umol/ml | MBC99.5 (Pseudomonas aeruginosa [21]): 40.5 ×10⁻² umol/ml; MIC (Bacillus cereus [22]): 216 µM (≈ 79.8 µg/mL); MBC99.5 (Listeria monocytogenes [23]): 40.5 ×10⁻² umol/ml; MIC (Candida albicans [24]): 216 µM (≈ 79.8 µg/mL); MFC99.5 (Aspergillus niger [25]): 21.6 ×10⁻² umol/ml; MFC99.5 (Trichoderma viride [26]): 10.8 ×10⁻² umol/ml; MIC (Micrococcus flavus [27]): 297 µM (≈ 110 µg/mL); MBC99.5 (Enterobacter cloacae [28]): 21.4 ×10⁻² umol/ml; MIC (Salmonella typhimurium [29]): 216 µM (≈ 79.8 µg/mL); MFC99.5 (Penicillium ochrochloron [30]): 21.6 ×10⁻² umol/ml; MIC (Staphylococcus aureus [31]): 216 µM (≈ 79.8 µg/mL); MIC (Aspergillus versicolor [32]): 216 µM (≈ 79.8 µg/mL)
4 | 270 µM (≈ 114 µg/mL) | 147 µM (≈ 62 µg/mL) | 49 µM (≈ 20.7 µg/mL) | 270 µM (≈ 114 µg/mL) | 98 µM (≈ 41.3 µg/mL) | 98 µM (≈ 41.3 µg/mL) | 38 µM (≈ 16 µg/mL) | 367 µM (≈ 155 µg/mL) | 49 µM (≈ 20.7 µg/mL) | 196 µM (≈ 82.7 µg/mL) | O=C(Cc1nsc2ccccc12)NN1C(=O)CSC1c1c(F)cccc1Cl (stereo not drawn) | 36.7 ×10⁻² umol/ml | 36.7 ×10⁻² umol/ml | 36.7 ×10⁻² umol/ml | 36.7 ×10⁻² umol/ml | 19.6 ×10⁻² umol/ml | 19.6 ×10⁻² umol/ml | 9.8 ×10⁻² umol/ml | 19.6 ×10⁻² umol/ml | 9.8 ×10⁻² umol/ml | 9.8 ×10⁻² umol/ml | MBC99.5 (Pseudomonas aeruginosa [21]): 36.7 ×10⁻² umol/ml; MIC (Bacillus cereus [22]): 147 µM (≈ 62 µg/mL); MBC99.5 (Listeria monocytogenes [23]): 73.4 ×10⁻² umol/ml; MIC (Candida albicans [24]): 49 µM (≈ 20.7 µg/mL); MFC99.5 (Aspergillus niger [25]): 36.7 ×10⁻² umol/ml; MFC99.5 (Trichoderma viride [26]): 4.9 ×10⁻² umol/ml; MIC (Micrococcus flavus [27]): 270 µM (≈ 114 µg/mL); MBC99.5 (Enterobacter cloacae [28]): 19.6 ×10⁻² umol/ml; MIC (Salmonella typhimurium [29]): 196 µM (≈ 82.7 µg/mL); MFC99.5 (Penicillium ochrochloron [30]): 9.8 ×10⁻² umol/ml; MIC (Staphylococcus aureus [31]): 147 µM (≈ 62 µg/mL); MIC (Aspergillus versicolor [32]): 49 µM (≈ 20.7 µg/mL)
